Read-outs that look alike come from different tables or passages of the source. Marks after values point to notes of the source that are not given here.
What was measured:
[1] = logP by HPLC on reversed-phase column (C 18), EEC Directive 79/831 Annex V.A8; format: physicochemical
weeds [2] = test: Pre-emergence test (Example A), damage to weeds; format: in vivo; conditions: soil sprayed 24 hours after sowing, rated after three weeks
Procedure: (§1) To produce a suitable preparation of active compound, 1 part by weight of active compound is mixed with the stated amount of solvent, the stated amount of emulsifier is added and the concentrate is diluted with water to the desired concentration.
Seeds of the test plants are sown in normal soil. After 24 hours, the soil is sprayed with the preparation of active compound such that the particular amount of active compound desired is applied per unit area. The concentration of active compound in the spray liquor is chosen such that the particular amount of active compound desired is applied in 1000 liters of water per hectare.
After three weeks, the degree of damage to the plants is rated in % damage in comparison to the development of the untreated control. The figures denote: • 0%=no effect (like untreated control) • 100%=total destruction

weeds [3] = test: Post-emergence test (Example B), damage to weeds; format: in vivo; conditions: test plants of 5-15 cm sprayed, rated after three weeks
Procedure: as §1
Test plants of a height of 5-15 cm are sprayed with the preparation of active compound such that the particular amounts of active compound desired are applied per unit area. The concentration of the spray liquor is chosen such that the particular amounts of active compound desired are applied in 1000 l of water/ha.
After three weeks, the degree of damage to the plants is rated in % damage in comparison to the development of the untreated control.
The figures denote: • 0%=no effect (like untreated control) • 100%=total destruction

[4] = a) acidic range: 0.1% aqueous phosphoric acid, acetonitrile gradient, 43° C.

logP [1]	Compound	other results
logP = 2.88^a)	CN(Cc1ccco1)C(=O)Nc1cc(-n2c(=O)cc(C(F)(F)F)n(C)c2=O)c(F)cc1Cl [Example 44]	activity against weeds (degree of damage) (weeds [2]): strong activity; activity against weeds (degree of damage) (weeds [3]): strong activity
logP = 2.85^a)	CCN1CCN(C(=O)Nc2cc(-n3c(=O)cc(C(F)(F)F)n(C)c3=O)c(F)cc2Br)C1=O [Example 6]	activity against weeds (degree of damage) (weeds [2]): strong activity; activity against weeds (degree of damage) (weeds [3]): strong activity
logP = 2.63^a)	Cn1c(C(F)(F)F)cc(=O)n(-c2cc(NC(=O)N3CCCO3)c(Br)cc2F)c1=O [Example 28]	activity against weeds (degree of damage) (weeds [2]): strong activity; activity against weeds (degree of damage) (weeds [3]): strong activity
logP = 2.52^a)	CN1CCN(C(=O)Nc2cc(-n3c(=O)cc(C(F)(F)F)n(C)c3=O)c(F)cc2Cl)C1=O [Example 51]	
logP = 2.93^a)	CCOC(=O)C1CCCN(C(=O)Nc2cc(-n3c(=O)cc(C(F)(F)F)n(C)c3=O)c(F)cc2Cl)C1 (stereo not drawn) [Example 43]	
logP = 1.74^a)	CC(=O)NC1CCN(C(=O)Nc2cc(-n3c(=O)cc(C(F)(F)F)n(C)c3=O)c(F)cc2Cl)C1 (stereo not drawn) [Example 94]	
logP = 2.74^a)	CCOC(=O)C(C)OC(=O)Nc1cc(-n2c(=O)cc(C(F)(F)F)n(C)c2=O)c(F)cc1Cl (stereo not drawn) [Example 127]	
logP = 2.76^a)	CN1CCCN(C(=O)Nc2cc(-n3c(=O)cc(C(F)(F)F)n(C)c3=O)c(F)cc2Cl)C1=O [Example 56]	
logP = 1.81^a)	Cn1c(C(F)(F)F)cc(=O)n(-c2cc(NC(=O)N3CCC(O)CC3)c(Br)cc2F)c1=O [Example 118]	
logP = 2.58^a)	CCOC(=O)CONC(=O)Nc1cc(-n2c(=O)cc(C(F)(F)F)n(C)c2=O)c(F)cc1Cl [Example 104]	
logP = 2 2.81^a)	CCN1CCN(C(=O)Nc2cc(-n3c(=O)cc(C(F)(F)F)n(C)c3=O)c(F)cc2Cl)C1=O [Example 53]	
logP = 1.77^a)	Cn1c(C(F)(F)F)cc(=O)n(-c2cc(NC(=O)N3CCC(O)CC3)c(Cl)cc2F)c1=O [Example 117]	
logP = 3.10^a)	Cn1c(C(F)(F)F)cc(=O)n(-c2cc(NC(=O)N3CCCCCC3)c(Br)cc2F)c1=O [Example 99]	
logP = 3.50^a)	Cn1c(C(F)(F)F)cc(=O)n(-c2cc(NC(=O)SC3=NCCS3)c(Cl)cc2F)c1=O [Example 11]	
logP = 2.96^a)	Cn1c(C(F)(F)F)cc(=O)n(-c2cc(NC(=O)N3CCCCO3)c(Br)cc2F)c1=O [Example 63]	
logP = 3.11^a)	CCOC(=O)C(C)(C)ONC(=O)Nc1cc(-n2c(=O)cc(C(F)(F)F)n(C)c2=O)c(F)cc1Cl [Example 100]	
logP = 3.35^a)	CCON(CC)C(=O)Nc1cc(-n2c(=O)cc(C(F)(F)F)n(C)c2=O)c(F)cc1Cl [Example 71]	
logP = 2.74^a)	CCOC(=O)COC(=O)Nc1cc(-n2c(=O)cc(C(F)(F)F)n(C)c2=O)c(F)cc1Cl [Example 126]	
logP = 2.43^a)	CCOC(=O)N1CCN(C(=O)Nc2cc(-n3c(=O)cc(C(F)(F)F)n(C)c3=O)c(F)cc2Cl)CC1 [Example 96]	
logP = 2.89^a)	Cn1c(C(F)(F)F)cc(=O)n(-c2cc(NC(=O)N3CCCCO3)c(Cl)cc2F)c1=O [Example 62]	

More lines, now with the values behind:

Compound	logP [1]	other results
CCCN(C(=O)Nc1cc(-n2c(=O)cc(C(F)(F)F)n(C)c2=O)c(F)cc1Cl)C(C)C [Example 45]	logP = 2.58^a)	activity against weeds (degree of damage) (weeds [2]): strong activity; activity against weeds (degree of damage) (weeds [3]): strong activity
CCOC(=O)C(C)OC(=O)Nc1cc(-n2c(=O)cc(C(F)(F)F)n(C)c2=O)c(F)cc1Br (stereo not drawn) [Example 10]	logP = 3.06^a)	activity against weeds (degree of damage) (weeds [2]): strong activity; activity against weeds (degree of damage) (weeds [3]): strong activity
C=CCONC(=O)Nc1cc(-n2c(=O)cc(C(F)(F)F)n(C)c2=O)c(F)cc1Cl [Example 22]	logP = 2.60^a)	activity against weeds (degree of damage) (weeds [2]): strong activity
Cn1c(C(F)(F)F)cc(=O)n(-c2cc(NC(=O)NCCC#N)c(Cl)cc2F)c1=O [Example 15]		logP [1, 4]: logP = 2.06^a)
CC1CN(C(=O)Nc2cc(-n3c(=O)cc(C(F)(F)F)n(C)c3=O)c(F)cc2Br)CC(C)O1 (stereo not drawn) [Example 120]	logP = 2.55^a)	
CC1CN(C(=O)Nc2cc(-n3c(=O)cc(C(F)(F)F)n(C)c3=O)c(F)cc2Cl)CC(C)O1 (stereo not drawn) [Example 119]	logP = 2.50^a)	
CCOC(=O)C1CCCN(C(=O)Nc2cc(-n3c(=O)cc(C(F)(F)F)n(C)c3=O)c(F)cc2C#N)C1 (stereo not drawn) [Example 133]	logP = 2.70^a)	
Cn1c(C(F)(F)F)cc(=O)n(-c2cc(NC(=O)NCCC#N)c(Br)cc2F)c1=O [Example 20]		logP [1, 4]: logP = 2.08^a); activity against weeds (degree of damage) (weeds [2]): strong activity
CCOC(=O)C(C)(C)ONC(=O)Nc1cc(-n2c(=O)cc(C(F)(F)F)n(C)c2=O)c(F)cc1Br [Example 101]	logP = 3.16^a)	
COC(=O)[C@@H]1CCCN1C(=O)Nc1cc(-n2c(=O)cc(C(F)(F)F)n(C)c2=O)c(F)cc1Br [Example 33]	logP = 2.52^a)	activity against weeds (degree of damage) (weeds [3]): strong activity
COC(=O)[C@@H]1CCCN1C(=O)Nc1cc(-n2c(=O)cc(C(F)(F)F)n(C)c2=O)c(F)cc1Cl [Example 34]	logP = 2.46^a)	activity against weeds (degree of damage) (weeds [3]): strong activity
CON(C)C(=O)N(C)c1cc(-n2c(=O)cc(C(F)(F)F)n(C)c2=O)c(F)cc1Cl [Example 77]	logP = 2.53^a)	
CCOC(=O)CSC(=O)Nc1cc(-n2c(=O)cc(C(F)(F)F)n(C)c2=O)c(F)cc1Br [Example 18]	logP = 2.90^a)	
Cn1c(C(F)(F)F)cc(=O)n(-c2cc(NC(=O)N3CCOCC3)c(Cl)cc2F)c1=O [Example 49]	logP = 2.11^a)	activity against weeds (degree of damage) (weeds [2]): strong activity
Cn1c(C(F)(F)F)cc(=O)n(-c2cc(NC(=O)N3CCOCC3)c(Br)cc2F)c1=O [Example 41]	logP = 2.16^a)	activity against weeds (degree of damage) (weeds [3]): strong activity
CCOC(=O)C1CCN(C(=O)Nc2cc(-n3c(=O)cc(C(F)(F)F)n(C)c3=O)c(F)cc2Cl)CC1 [Example 42]	logP = 2.84^a)	activity against weeds (degree of damage) (weeds [3]): strong activity
CCOC(=O)C1CCN(C(=O)Nc2cc(-n3c(=O)cc(C(F)(F)F)n(C)c3=O)c(F)cc2Br)CC1 [Example 36]	logP = 2.88^a)	activity against weeds (degree of damage) (weeds [3]): strong activity
C#CCN(C(=O)N(C)OC)c1cc(-n2c(=O)cc(C(F)(F)F)n(C)c2=O)c(F)cc1Cl [Example 108]	logP = 2.75^a)	
CCOC(=O)CN(C)C(=O)Nc1cc(-n2c(=O)cc(C(F)(F)F)n(C)c2=O)c(F)cc1Br [Example 122]	logP = 2.54^a)	
CCOC(=O)C1CCCN(C(=O)Nc2cc(-n3c(=O)cc(C(F)(F)F)n(C)c3=O)c(F)cc2Br)C1 (stereo not drawn) [Example 1, ethyl 1-[2-bromo-4-fluoro-5-(3-methyl-2,6-dioxo-4-trifluoromethyl-3,6-dihydro-2H-pyrimidin-1-yl)phenylcarbamoyl]piperidine-3-carboxylate]		chromatographic logP ([1]; reversed-phase C18 HPLC column, pH 2): 2.98
CCN(OC)C(=O)Nc1cc(-n2c(=O)cc(C(F)(F)F)n(C)c2=O)c(F)cc1Br [Example 75]	logP = 3.01^a)	
CCOC(=O)COC(=O)Nc1cc(-n2c(=O)cc(C(F)(F)F)n(C)c2=O)c(F)cc1Br [Example 125]	logP = 2.79^a)	

Source: patent US7521396B2, “Substituted (thioxo)carbonylaminophenyluracils” (Bayer CropScience AG, priority 2002, dated 2009)
